# Measurements taken from paper PMC10077338, “Galangin delivered by retinoic acid-modified nanoparticles targeted hepatic stellate cells for the treatment of hepatic fibrosis” (RSC Advances, 2023).
# Columns and labels:
# [1] = Pharmacokinetics after oral administration; format: in vivo, Sprague–Dawley rats
# Description: All animal procedures were approved by the Animal Care and Use Committee of the Renmin Hospital of Wuhan University (Laboratory Animal Welfare and Ethics Committee [Institutional Animal Care and Use Committee] Issue No.: WDRM NO.20200501). […] Free GA, GA-NPs, and RA-GA-NPs were orally administered (GA concentration: 50 mg kg^−1). Subsequently, 200 μL of blood were collected at predetermined time points (i.e., 0.5, 1, 2, 4, 6, 8, 10, 12, and 24 h). The concentrations of GA in plasma were determined by HPLC. Plasma samples (200 μL) were extracted using 200 μL of acetonitrile, vortexed for 10 min, and centrifuged at 5000 rpm for 5 min. Thereafter, the supernatant was collected and filtered using a 0.45 μm nylon 66 membrane. Finally, each sample (20 μL) was injected into the HPLC system.
# HF model induced by CCl4 = assay: Anti-HF effect in vivo; design: species or system C57BL/6 mice; settings: 20 mg kg^−1 oral daily for 4 weeks, CCl4 mice
# Description: Forty 6 weeks-old male C57BL/6 mice (weight: 20 ± 2 g; […]) were randomly divided into five groups (n = 8 per group): control; tetrachloromethane (CCl4)-treated; free GA; GA-NPs; and RA-GA-NPs. The HF model was induced by intraperitoneal injection with 10% CCl4 (diluted in olive oil, 5 mL per kg body weight) thrice per week for 4 consecutive weeks.[33–35] The control mice received an intraperitoneal injection with an equal volume of olive oil. The mice in all treatment groups received an injection with CCl4 for 4 weeks, as well as free GA, GA-NPs, or RA-GA-NPs (20 mg kg^−1) through oral administration once daily for 4 weeks; the dose of GA was based on previous reports.[36,37] All mice were sacrificed 12 h after the last administration, and blood specimens were collected through retro-orbital bleeding. Serum was subsequently separated by centrifugation at 3500 rpm for 15 min at 4 °C and stored at −20 °C. […] is typically used to discriminate collagen fibers from tissues on histological slides. […] The levels of ALT, AST, and Hyp were determined using detection kits, respectively, according to the instructions provided by the manufacturer. In addition, the serum levels of markers, HA, LN, PC III, and Col IV were determined using ELISA kits based on the respective protocols.
# aHSC = test system: aHSC; design: method as in PMID 32893252; settings: cited from earlier work
# [2] = both sexes, Sprague-Dawley, rat, plasma, GA 50 mg kg^−1, n = 6
structure (smiles),measurement,setting,value
"O=c1c(O)c(-c2ccccc2)oc2cc(O)cc(O)c12 [Free GA, 3,5,7-trihydroxyflavone]",AUC,"[1]; GA 50 mg kg^−1, n = 6",2.58 ± 0.47 µg·h/mL
same,CL,"[1]; GA 50 mg kg^−1, n = 6",3.99 ± 0.73 (mg kg^−1)/h(μg mL^−1)
same,V d,"[1]; GA 50 mg kg^−1, n = 6",20.98 ± 4.22 L/kg
same,time for which serum drug concentrations were detected / maintained,"[1]; GA 50 mg kg^−1, sampling up to 24 h",up to 12 h
same,MRT,[1]; [2],5.25 ± 0.16 h
same,half-life,[1]; [2],218 ± 6.6 min
same,"effect on the biomarkers of HF (HA, LN, PC III, Col IV)",HF model induced by CCl4,modest anti-fibrotic effect
same,concentration at which inhibition of aHSC in vitro was initiated,aHSC,6 µg/mL
